Measurements as given in patent US20060069132A1, “Azolecarboxamide herbicides” (priority 2004, published 2006).

Key:
barnyardgrass [1] = assay: Test C flooded paddy test; format: in vivo, Echinochloa crus-galli
Procedure, shortened: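 Greenhouse test with a 12–14 day hold after application and visual comparison with controls. Emerged plants were 1- to 4-leaf stage (2–18 cm) when sprayed postemergence, and the paddy barnyardgrass was at 2 leaves under flooded conditions. 100 = complete control.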

ducksalad [2] = assay: Test B flooded paddy test; format: in vivo, Heteranthera limosa; settings: 1000 g ai/ha, scale 0 to 100 (0 no effect, 100 complete control)
Procedure, shortened: (§1)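 Plants grow to 1- to 4-leaf stage (2–18 cm) for postemergence spraying, or to 2-leaf stage for the paddy test. Formulated compound is applied. Greenhouse holding lasts 13–15 days. Response is scored visually relative to controls, 0 no effect to 100 complete control; a dash means no result.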

[3] = system: small flower umbrella sedge; assay: Test B flooded paddy test; format: in vivo, Cyperus difformis; settings: 1000 g ai/ha, scale 0 to 100 (0 no effect, 100 complete control)
Procedure, shortened: as §1

giant foxtail = assay: Test B pre-/postemergence herbicide test; format: in vivo, Setaria faberi; settings: for Foxtail, Giant plant response rating: postemergence
Procedure, shortened: (§2)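 Test chemicals in a non-phytotoxic solvent mixture with surfactant were applied preemergence to seeded species and postemergence to plants 2-18 cm tall (1- to 4-leaf stage); rice and barnyardgrass were also tested in a flooded paddy at the 2-leaf stage. Visual rating versus controls after 13-15 days in greenhouse, scale 0 (no effect) to 100 (complete control).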

rice [4] = assay: Test C flooded paddy test; format: in vivo, Oryza sativa
Procedure, shortened: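 Plants were grown to the 1- to 4-leaf stage (2–18 cm) and then treated postemergence, or grown to the 2-leaf stage for the flooded paddy test. They were held in a greenhouse for 12 to 14 days and then scored by eye against controls, where 0 is no effect and 100 is complete control.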

barnyardgrass [5] = assay: Test B pre-/postemergence herbicide test; format: in vivo, Echinochloa crus-galli; settings: for Barnyardgrass plant response rating: postemergence
Procedure, shortened: (§3)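 Species tested were Echinochloa crus-galli, Ipomoea coccinea, Xanthium strumarium and Oryza sativa, treated both before emergence and at the 1- to 4-leaf stage; rice and barnyardgrass were also tested under flooding at 2 leaves. Greenhouse incubation lasted 13–15 days before visual 0–100 scoring.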

rice [6] = assay: Test B flooded paddy test; format: in vivo, Oryza sativa; settings: 1000 g ai/ha, scale 0 to 100 (0 no effect, 100 complete control)
Procedure, shortened: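 Paddy species grown to the 2-leaf stage under flooding; blackgrass sprayed postemergence at 2–18 cm (1- to 4-leaf stage). Plants kept in a greenhouse for 13 to 15 days, then visually rated against controls on 0 (no effect) to 100 (complete control).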

cocklebur = assay: Test B pre-/postemergence herbicide test; format: in vivo, Xanthium strumarium; settings: for Cocklebur plant response rating: postemergence
Procedure, shortened: as §3

Surinam grass = assay: Test B pre-/postemergence herbicide test; format: in vivo, Urochloa decumbens; settings: for Surinam Grass plant response rating: scale 0 (no effect) to 100 (complete control)
Procedure, shortened: as §2

wheat = assay: Test B postemergence herbicide test; format: in vivo, Triticum aestivum; parameters: key to Wheat plant response rating: 0 = no effect, 100 = complete control
Procedure, shortened: (§4)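 Formulated test chemicals went onto postemergence plants measuring 2 to 18 cm, at one to four leaves. For the paddy assay, species had reached two leaves. Scoring took place 13–15 days later by eye, relative to untreated plants, using 0 for no effect up to 100 for full control.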

blackgrass = assay: Test B postemergence herbicide test; format: in vivo, Alopecurus myosuroides; settings: postemergence
Procedure, shortened: as §1

wild oat = assay: Test B postemergence herbicide test; format: in vivo, Avena fatua; settings: scale 0 (no effect) to 100 (complete control)
Procedure, shortened: as §4

morningglory = assay: Test B pre-/postemergence herbicide test; format: in vivo, Ipomoea coccinea; settings: for Morningglory plant response rating: scale 0 (no effect) to 100 (complete control)
Procedure, shortened: as §3

velvetleaf = assay: Test B pre-/postemergence herbicide test; format: in vivo, Abutilon theophrasti; settings: for Velvetleaf plant response rating: scale 0 (no effect) to 100 (complete control)
Procedure, shortened: as §2

corn = assay: Test B pre-/postemergence herbicide test; format: in vivo, Zea mays; settings: for Corn plant response rating: postemergence
Procedure, shortened: as §2

large crabgrass = assay: Test B pre-/postemergence herbicide test; format: in vivo, Digitaria sanguinalis; settings: for Crabgrass, Large plant response rating: postemergence
Procedure, shortened: as §2

pigweed = assay: Test B pre-/postemergence herbicide test; format: in vivo, Amaranthus retroflexus; settings: for Pigweed plant response rating: scale 0 (no effect) to 100 (complete control)
Procedure, shortened: as §2

barnyardgrass [7] = assay: Test B flooded paddy test; format: in vivo, Echinochloa crus-galli; settings: 1000 g ai/ha, scale 0 to 100 (0 no effect, 100 complete control)
Procedure, shortened: as §1

lambsquarters = assay: Test B pre-/postemergence herbicide test; format: in vivo, Chenopodium album; settings: for Lambsquarters plant response rating: scale 0 (no effect) to 100 (complete control)
Procedure, shortened: as §2

ducksalad [8] = assay: Test C flooded paddy test; format: in vivo, Heteranthera limosa
[9] = system: smallflower umbrella sedge; assay: Test C flooded paddy test; format: in vivo, Cyperus difformis
[10] = 125 g ai/ha, scale 0 to 100 (0 no effect, 100 complete control)
[11] = 250 g ai/ha, scale of 0 to 100, 0 is no effect, 100 is complete control
[12] = 500 g ai/ha, visual rating after 12 to 14 days, scale 0 to 100 (0 no effect, 100 complete control)
[13] = 125 g ai/ha, 0 is no effect, 100 is complete control, preemergence
[14] = 125 g ai/ha, visual rating, scale 0 (no effect) to 100 (complete control)
[15] = 500 g ai/ha, scale 0 to 100, 0 is no effect, 100 is complete control
[16] = 125 g ai/ha, visual rating, postemergence

CCc1nn(C(C)(C)CC)nc1C(=O)Nc1cccc(C(=O)N2CC=CC2)c1 [Compound 369]
80: Sedge, Umbrella plant response rating [3] | Plant response rating (0 to 100 scale), Pigweed (pigweed; [13]) | Ducksalad plant response rating (ducksalad [8]; 62 g ai/ha, scale 0 to 100) | Ducksalad plant response rating (ducksalad [8]; [10]) | Ducksalad plant response rating (ducksalad [8]; [11]) | Plant response rating, Ducksalad (ducksalad [8]; [12])
10: Barnyardgrass plant response rating (barnyardgrass [1]; 62 g ai/ha, scale 0 to 100 (0 no effect, 100 complete control)) | Barnyardgrass plant response rating (barnyardgrass [5]; [14]) | Surinam Grass plant response rating (Surinam grass; [16]) | Surinam Grass plant response rating (Surinam grass; Postemergence, 500 g ai/ha) | Velvetleaf plant response rating (velvetleaf; [16]) | Corn plant response rating (corn; [14]) | Corn plant response rating (corn; [15]) | Crabgrass, Large plant response rating (large crabgrass; [14])
70: Cocklebur plant response rating (cocklebur; [15]) | Lambsquarters plant response rating (lambsquarters; Postemergence, 500 g ai/ha)
65: Plant response rating, Barnyardgrass (barnyardgrass [1]; [12]) | Plant response rating, Rice (rice [4]; [12])
60: Rice plant response rating (rice [4]; [10]) | Rice plant response rating (rice [4]; [11]) | Rice plant response rating (rice [6]) | Velvetleaf plant response rating (velvetleaf; Postemergence, 500 g ai/ha) | Pigweed plant response rating (pigweed; Postemergence, 500 g ai/ha)
0: Plant response rating (0 to 100 scale), Cocklebur (cocklebur; [13]) | Plant response rating (0 to 100 scale), Surinam Grass (Surinam grass; [13]) | Wheat plant response rating (wheat; 125 g ai/ha, visual rating, scale 0 (no effect) to 100 (complete control), postemergence) | Wheat plant response rating (wheat; 500 g ai/ha, scale 0 to 100, 0 no effect, 100 complete control, preemergence) | Wheat plant response rating (wheat; Postemergence, 500 g ai/ha, scale 0 (no effect) to 100 (complete control)) | Blackgrass plant response rating (blackgrass; [14]) | Plant response rating (0 to 100 scale), Morningglory (morningglory; [13]) | Morningglory plant response rating (morningglory; [16]) | Plant response rating (0 to 100 scale), Velvetleaf (velvetleaf; [13])
55: Rice plant response rating (rice [4]; 62 g ai/ha, scale 0 to 100)
20: Plant response rating (0 to 100 scale), Foxtail, Giant (giant foxtail; [13]) | Foxtail, Giant plant response rating (giant foxtail; [14]) | Barnyardgrass plant response rating (barnyardgrass [5]; [15]) | Cocklebur plant response rating (cocklebur; [14]) | Oat, Wild plant response rating (wild oat; [16]) | Morningglory plant response rating (morningglory; Postemergence, 500 g ai/ha) | Plant response rating (0 to 100 scale), Corn (corn; [13]) | Plant response rating (0 to 100 scale), Crabgrass, Large (large crabgrass; [13]) | Crabgrass, Large plant response rating (large crabgrass; [15]) | Lambsquarters plant response rating (lambsquarters; [16])
50: Barnyardgrass plant response rating (barnyardgrass [1]; [11]) | Barnyardgrass plant response rating (barnyardgrass [7])
90: Ducksalad plant response rating (ducksalad [2])
45: Barnyardgrass plant response rating (barnyardgrass [1]; [10])
30: Foxtail, Giant plant response rating (giant foxtail; [15]) | Plant response rating (0 to 100 scale), Barnyardgrass (barnyardgrass [5]; [13]) | Blackgrass plant response rating (blackgrass; [15]) | Oat, Wild plant response rating (wild oat; Postemergence, 500 g ai/ha) | Pigweed plant response rating (pigweed; [16])
85: Sedge, Umbrella plant response rating [9, 11]
100: Plant response rating (0 to 100 scale), Lambsquarters (lambsquarters; [13])
75: Sedge, Umbrella plant response rating ([9]; 62 g ai/ha, scale 0 to 100) | Sedge, Umbrella plant response rating [9, 10]
